Laboratory results published in patent US20170121319A1, “Herbicidal Compounds” (Syngenta Participations AG, priority 2014, published 2017).

Columns and labels:
Format in all cases: in vivo
Design in all cases: key: 5=total damage to plant; 0=no damage to plant
SETFA = Setaria faberi [1] = experiment: Pre-emergence herbicidal activity, glasshouse pot test
Description: (§1) Seeds of a variety of test species were sown in standard soil in pots. After cultivation for one day (pre-emergence) under controlled conditions in a glasshouse (at 24/16° C., day/night; 14 hours light; 65% humidity), the plants were sprayed with an aqueous spray solution derived from the formulation of the technical active ingredient in acetone/water (50:50) solution containing 0.5% Tween 20 (polyoxyethelyene sorbitan monolaurate, CAS RN 9005-64-5). The test plants were then grown in a glasshouse under controlled conditions (at 24/16° C., day/night; 14 hours light; 65% humidity) and watered twice daily. After 13 days, the test was evaluated (5=total damage to plant; 0=no damage to plant). Pre- and post-emergence testing was carried out as detailed above on the compounds A1, A2, A4 and A5 and their respective S-enantiomers.

[2] = system: ECHCG = Echinochloa crus-galli; experiment: as above
Description: as §1

[3] = system: ABUTH = Abutilon theophrasti; experiment: as above
Description: as §1

LOLPE [4] = experiment: as above; conditions: comparison of enantiomers, 62.5 g/Ha
Description: as §1

[5] = system: AMARE = Amaranthus retroflexus; experiment: as above
Description: as §1

ZEAMX = Zea mays [6] = experiment: as above
Description: as §1

SETFA = Setaria faberi [7] = experiment: Post-emergence herbicidal activity, glasshouse pot test
Description: (§2) Seeds of a variety of test species were sown in standard soil in pots. After 8 days cultivation (post-emergence) under controlled conditions in a glasshouse (at 24/16° C., day/night; 14 hours light; 65% humidity), the plants were sprayed with an aqueous spray solution derived from the formulation of the technical active ingredient in acetone/water (50:50) solution containing 0.5% Tween 20 (polyoxyethelyene sorbitan monolaurate, CAS RN 9005-64-5). The test plants were then grown in a glasshouse under controlled conditions (at 24/16° C., day/night; 14 hours light; 65% humidity) and watered twice daily. After 13 days, the test was evaluated (5=total damage to plant; 0=no damage to plant). Pre- and post-emergence testing was carried out as detailed above on the compounds A1, A2, A4 and A5 and their respective S-enantiomers.

[8] = system: ECHCG = Echinochloa crus-galli; experiment: as above
Description: as §2

[9] = system: ABUTH = Abutilon theophrasti; experiment: as above
Description: as §2

LOLPE [10] = experiment: as above; conditions: comparison of enantiomers, 250 g/Ha
Description: as §2

[11] = system: AMARE = Amaranthus retroflexus; experiment: as above
Description: as §2

ZEAMX = Zea mays [12] = experiment: as above
Description: as §2

[13] = 1000 g/Ha, evaluated after 13 days
[14] = comparison of enantiomers, 250 g/Ha
[15] = comparison of enantiomers, 62.5 g/Ha

CCO[C@@H]1C(O)N(c2cc(C(C)(C)C)on2)C(=O)N1C (single isomer, unassigned) [Example A2]
2: ZEAMX damage score (0-5) (ZEAMX = Zea mays [6]; [13])
3: ABUTH damage score (0-5) [3, 15] | ABUTH damage score (0-5) [3, 14] | LOLPE damage score (0-5) (LOLPE [4]) | SEFTA damage score (0-5) (SETFA = Setaria faberi [7]; [15])
4: ECHCG damage score (0-5) [2, 13] | ECHCG damage score (0-5) [2, 14] | ZEAMX damage score (0-5) (ZEAMX = Zea mays [6]; [15]) | ZEAMX damage score (0-5) (ZEAMX = Zea mays [6]; [14]) | ZEAMX damage score (0-5) (ZEAMX = Zea mays [12]; [13])
1: SETFA damage score (0-5) (SETFA = Setaria faberi [1]; [13])
5: SEFTA damage score (0-5) (SETFA = Setaria faberi [1]; [14]) | ECHCG damage score (0-5) [2, 15] | ABUTH damage score (0-5) [3, 13] | AMARE damage score (0-5) [5, 13] | AMARE damage score (0-5) [5, 15] | AMARE damage score (0-5) [5, 14] | SETFA damage score (0-5) (SETFA = Setaria faberi [7]; [13]) | ECHCG damage score (0-5) [8, 13] | ECHCG damage score (0-5) [8, 15] | ECHCG damage score (0-5) [8, 14] | ABUTH damage score (0-5) [9, 13] | ABUTH damage score (0-5) [9, 15] | ABUTH damage score (0-5) [9, 14] | LOLPE damage score (0-5) (LOLPE [10]) | AMARE damage score (0-5) [11, 13] | AMARE damage score (0-5) [11, 15] | AMARE damage score (0-5) [11, 14] | ZEAMX damage score (0-5) (ZEAMX = Zea mays [12]; [15]) | ZEAMX damage score (0-5) (ZEAMX = Zea mays [12]; [14])
